Source: patent EP0465913B1, “Diaminotrifluoromethylpyrimidine derivatives, process for their production and phospholipase A2 inhibitor containing them” (ISHIHARA SANGYO KAISHA, LTD., priority 1990, dated 1992)
Read-outs that look alike come from different tables or passages of the source.

Legend:
[1] = biological target: T1, Porcine pancreatic phospholipase A2 (Sus scrofa, UniProt P00592); experiment: Phospholipase A2 inhibitory activity, method A (egg yolk lecithin substrate); format: biochemical; details: 1,000 ppm, 37°C for 30 minutes, read-out: % inhibition of PLA2 (1,000 ppm)
T1 construct: purchased Boehringer Mannheim·Yamanouchi K.K. 161454·122416
T1 sequence (P00592 23-146): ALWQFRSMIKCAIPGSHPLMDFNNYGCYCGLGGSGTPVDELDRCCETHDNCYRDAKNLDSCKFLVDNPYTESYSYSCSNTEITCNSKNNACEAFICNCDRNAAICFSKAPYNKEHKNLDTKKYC
Procedure: To 10 mg of egg yolk lecithin (manufactured by Wako Pure Chemical Industries Ltd.), 1 ml of glycerine, 2 ml of a 50 mM Tris-HCl buffer solution (pH7.5) [Tris(hydroxymethyl)aminomethane (manufactured by Nacalai Tesque K.K.) was adjusted to pH7.5 with hydrochloric acid], 0.5 ml of a 150 mM calcium chloride solution (calcium chloride was dissolved in a 50 mM Tris-HCl buffer solution) and 0.5 ml of a 0.05% Triton-X100 (manufactured by Nacalai Tesque K.K.) solution (Triton-X100 was dissolved in a 50 mM Tris-HCl buffer solution), were added and dispersed by an agate mortar or dispersed by an ultrasonic processor (Model W-225, manufactured by Heat System-Ultrasonics, Inc.) for 5 minutes (30W) to obtain a substrate.
(§1) Porcine pancreatic phospholipase A2 [(161454·122416) manufactured by Boehringer Mannheim·Yamanouchi K.K.] was used.
To a 96 well microtitration plate (flat bottom, manufactured by Sumitomo Bakelite Medical Co., Ltd.), 40 µl of the substrate, 5 µl of a solution prepared by dissolving 10 mg of a test compound in 500 µl of dimethylsulfoxide, followed by an addition of 500 µl of a 50 mM Tris-HCl buffer solution, and 5 µl of an enzyme solution of 20 ng/ml (prepared by diluting the enzyme in a 50 mM Tris-HCl buffer solution), were added and reacted at 37°C for 30 minutes. After termination of the reaction, the released free fatty acid was quantitatively analyzed in accordance with the ACS-ACOD (acyl CoA synthetase-acyl CoA oxidase) method [a kit of NEFA C test wako (manufactured by Wako Pure Chemical Industries, Ltd.) was used]. The quantitative analysis was made by means of Microplate ELISA Reader (Model 2550EIA Reader, manufactured by Bio-Rad Laboratories) at a wavelength of 540 nm. Separately, such experiments as mentioned above, were carried out at various concentrations (2 µg/ml, 1 µg/ml and 0.5 µg/ml) of phospholipase A2 without a test compound. Then, the concentration of the free fatty acid versus the concentration of phospholipase A2 was plotted.
(§2) From this standard curve, the apparent concentration of phospholipase A2 in the case with a test compound, was read. Then, the percent inhibition of the enzyme was calculated by the following formula. Percent inhibition (%) = (l -(A)/(B)) x 100 [formula] • A: Apparent enzyme concentration when a test compound is added. • B: True enzyme concentration when a test compound is added.

[2] = test system: experimental acute pancreatitis model; experiment: Effects against acute pancreatitis (Test Example 8, closed duodenal loop method, lesion scores); format: in vivo, Crj-CD male rats; details: sodium salt, 6 hours after ventrotomy; for inhibition in vivo at 10 mg/kg: Rattus norvegicus, 10 mg/kg single intravenous injection
Procedure: Using Crj-CD male rats, each test group consisted of 3 rats. An experimental acute pancreatitis model was prepared by a closed duodenal loop method under anethesia with halothane (manufactured by Hoechst Japan) and nitrous oxide (manufactured by Sumitomo Seika K.K.) applied by a general inhalation anesthesia machine (Model EM2 and halothane evaporator F-Model). Each compound (subjected to the test in the form of a sodium salt) was continuously intravenously injected into the tail vein in an amount of 0.4 ml/100 g to 0.6 ml/100 g at a rate of 0.05 ml per minute by a pump (Technicon AA II Proportioning Pump III, manufactured by Technicon Instruments Corporation) or rapidly intravenously injected. No injection was made to a control group. Gross pathological examination was conducted upon expiration of 6 hours after the ventrotomy in the case of the group to which the compound was administered. With respect to each of four lesions among pancreatic lesions i.e. petechia, ecchymosis, pancreatic necrosis and abdominal fatty necrosis, the grade and the distribution of lesions were scored with five grades of 0, 0.5, 1, 2 and 3 (severe lesions are 3). The sum of all lesions was designated as scores of pancreatitis lesions, and the sum of the score of petechia and the score of ecchymosis only was designated as scores of hemorrhagic lesions. The pancreatitis inhibition rate (%) and the hemorrhage inhibition rate (%) were obtained by the following formulas, and the results are shown in Table 13. Pancreatitis inhibition rate (%) = (l -(H)/(G)) x 100 [formula] • H: Scores of pancreatitis lesions of the group to which a test compound was administered. • G: Scores of pancreatitis lesions of the control group. Hemorrhage inhibition rate (%) = (l -(J)/(I)) x 100 [formula] • J: Scores of hemorrhagic lesions of the group to which a test compound was administered. • I: Scores of hemorrhagic lesions of the control group.

carrageenin edema = experiment: Inhibitory activity on carrageenin edema; format: in vivo, Wistar male rats; details: rat; dose 50 mg/kg orally; paw swelling volume three hours after carrageenin
Procedure: Using Wistar male rats (body weight: about 100 g), each test group consisted of 5 rats. A test compound was mixed with Tween 80 [polyoxyethylenesorbitan monooleate (manufactured by Nacalai Tesque K.K.)], and distilled water was added thereto to obtain a 2% Tween 80 suspension, or it was dissolved in the form of a salt in water to obtain an aqueous solution. Either the suspension or the aqueous solution was orally administered in an amount of 200 mg/kg, 100 mg/kg, 50 mg/kg or 25 mg/kg. One hour later, 0.1 ml of a 1% λ-carrageenin solution dissolved in a physiological saline was injected subcutaneously to the right hind paw of each rat to cause inflamation. Three hours later, the paw volume was measured by a paw volume measuring device (manufactured by Ugobasiee K.K.). A swelling volume was obtained from the difference from the value before the inflammation. Inhibition rate (%) = (l -(F)/(E)) x 100 [formula] • F: Average swelling volume in the group to which a test compound was administered. • E: Average swelling volume in the control group.

[3] = Acute toxicity, intravenous injection (LD50); format: in vivo; details: mouse, in vivo, iv, ddy male mice, sodium salt, mortality over one week
Procedure: Administration route: Intravenous injection
Using ddy male mice (body weight: 25 - 30 g), each test group consisted of 5 mice. A test compound was dissolved in the form of a sodium salt in a physiological saline or in a 5% glucose aqueous solution, and intravenously injected in an amount of 0.1 ml/10 g body weight. After the injection, the mortality rate was obtained over one week, and the median lethal dose LD50 (mg/kg) was determined.

[4] = biological target: T1, Porcine pancreatic phospholipase A2; experiment: Phospholipase A2 inhibitory activity, method B (L-α-dipalmitoylphosphatidylcholine substrate); format: biochemical; details: 37°C for 30 minutes; for inhibition at 1000 ppm: 1,000 ppm, read-out: % inhibition of PLA2 (1,000 ppm)
Procedure: To a solution prepared by dissolving 9.2 mg of L-α-dipalmitoylphosphatidylcholine (manufactured by Nichiyu Liposome K.K.) in 0.5 ml of chloroform, a solution prepared by dissolving 32 mg of sodium cholate (manufactured by Wako Pure Chemical Industries, Ltd.) in 0.5 ml of methanol, was added, followed by mixing. The solvent of the mixture was removed under a nitrogen stream, and then 2.5 ml of a 250 mM sodium chloride solution [prepared by dissolving sodium chloride in a 100 mM Tris-HCl buffer solution {tris(hydroxymethyl)aminomethane (manufactured by Nacalai Tesque K.K.) was adjusted to pH8.0 with hydrochloric acid}] was added thereto, and the mixture was dissolved under stirring to obtain a substrate.
as §1
To a 96 well microtitration plate, 20 µl of a solution containing calcium chloride, bovine serum alubmin (manufactured by Sigma Chemical, Co.) and a Tris-HCl buffer solution (pH8.0) at concentrations of 25 mM, 4.5 mg/ml and 100 mM, respectively, 5 µl of a solution prepared by dissolving 10 mg of a test compound in 500 µl of diemthylsulfoxide, followed by an addition of 500 µl of a 200 mM Tris-HCl buffer solution, 5 µl of an enzyme solution (10 µg/ml) [prepared by dissolving the enzyme in a bovine serum alubmin solution (prepared by dissolving bovine serum alubmin in a 100 mM Tris-HCl buffer solution at a concentration of 1 mg/ml)] and 20 µl of the substrate, were added and reacted at 37°C for 30 minutes. After termination of the reaction, the released free fatty acid was quantitatively analyzed in accordance with the ACS-ACOD (acyl CoA synthetase-acyl CoA oxidase) method [a kit of NEFA C test wako (manufactured by Wako Pure Chemical Industries, Ltd.) was used]. The quantitative analysis was made by means of Microplate ELISA Reader (Model 2550EIA Reader, manufactured by Bio-Rad Laboratories) at a wavelength of 540 nm. Separately, such experiments as mentioned above, were carried out at various concentrations (1 µg/ml, 0.75 µg/ml, 0.5 µg/ml and 0.25 µg/ml) of phospholipase A2 without a test compound. Then, the concentration of the free fatty acid versus the concentration of phospholipase A2 was plotted.
as §2

[5] = read-out: Inhibition rate of hemorrhagic lesions (%)
[6] = read-out: Inhibition rate of pancreatitis lesions (%)

O=C(Nc1ncc(C(F)(F)F)cc1NC(=O)C(Cl)(Cl)Cl)C(F)(F)F [Compound No. 30, N-(3-trichloroacetylamino-5-trifluoromethyl-2-pyridyl)trifluoroacetamide]
inhibition at 1000 ppm [1]: 87%

CS(=O)(=O)Nc1ncc(C(F)(F)F)cc1NC(=O)C(F)(F)C(F)(F)C(F)(F)F [compound 14]
inhibition at 1000 ppm [1]: 54%
Inhibition rate of hemorrhagic lesions (%) ([2]; 19 mg/kg continuous intravenous injection): 52%

CCOCCC(=O)Nc1cc(C(F)(F)F)cnc1NC(=O)CCOCC [compound 26]
inhibition at 1000 ppm [1]: 35%

O=C(Nc1ncc(C(F)(F)F)cc1NC(=O)C(F)(F)F)C(Cl)Cl [compound 27]
inhibition at 1000 ppm [1]: 62%

O=C(Nc1cc(C(F)(F)F)cnc1NC(=O)C(Cl)Cl)C(Cl)Cl [compound 28]
inhibition at 1000 ppm [1]: 71%
Inhibition rate (%) (carrageenin edema): 25%

O=C(Nc1cc(C(F)(F)F)cnc1NC(=O)C(F)(F)F)C(Cl)Cl [compound 29]
inhibition at 1000 ppm [1]: 47%

O=C(Nc1cc(C(F)(F)F)cnc1NC(=O)C(F)(F)C(F)(F)F)c1ccccc1 [compound 32]
inhibition at 1000 ppm [1]: 50%

CCOC(=O)Nc1ncc(C(F)(F)F)cc1NC(=O)OCc1ccccc1 [compound 38]
inhibition at 1000 ppm [1]: 35%

CS(=O)(=O)NNc1ncc(C(F)(F)F)cc1NC(=O)C(F)(F)C(F)(F)F [compound 40]
LD50 at 168 h [3]: 50 to 100 mg/kg

COc1ccc(C(=O)Nc2cc(C(F)(F)F)cnc2NS(C)(=O)=O)cc1 [compound 44]
inhibition at 1000 ppm [1]: 43%
inhibition at 1000 ppm [4]: 64%

CS(=O)(=O)Nc1ncc(C(F)(F)F)cc1NC(=O)CCCCCl [compound 46]
inhibition at 1000 ppm [1]: 47%
Inhibition rate (%) (carrageenin edema): 30%
Inhibition rate of hemorrhagic lesions (%) ([2]; 46 mg/kg continuous intravenous injection): 36%

CCS(=O)(=O)Nc1ncc(C(F)(F)F)cc1NC(=O)c1ccccc1 [compound 48]
inhibition at 1000 ppm [1]: 48%

CC(C)S(=O)(=O)Nc1ncc(C(F)(F)F)cc1NC(=O)C(Cl)(Cl)Cl [compound 50]
inhibition at 1000 ppm [1]: 78%

CC(C)S(=O)(=O)Nc1ncc(C(F)(F)F)cc1NC(=O)C(F)(F)C(F)(F)F [compound 51]
inhibition at 1000 ppm [1]: 63%

CCCCS(=O)(=O)Nc1ncc(C(F)(F)F)cc1NC(=O)C(F)(F)C(F)(F)F [compound 52]
inhibition at 1000 ppm [1]: 49%

CCCCS(=O)(=O)Nc1ncc(C(F)(F)F)cc1NC(=O)C1CCCCC1 [compound 53]
inhibition at 1000 ppm [1]: 37%
inhibition at 1000 ppm [4]: 100%

CCOC(=O)NC(=S)Nc1cc(C(F)(F)F)cnc1NC [compound 54]
inhibition at 1000 ppm [1]: 37%

CS(=O)(=O)Nc1ncc(C(F)(F)F)cc1NC(=O)c1cccc(F)c1 [compound 58]
inhibition at 1000 ppm [1]: 74%
inhibition at 1000 ppm [4]: 42%
inhibition in vivo at 10 mg/kg [2, 5]: 70%
inhibition in vivo at 10 mg/kg [2, 6]: 51%

CCCCC(CC)C(=O)Nc1cc(C(F)(F)F)cnc1NS(C)(=O)=O (stereo not drawn) [compound 65]
inhibition at 1000 ppm [4]: 71%
Inhibition rate (%) (carrageenin edema): 37%
inhibition in vivo at 10 mg/kg [2, 5]: 67%
inhibition in vivo at 10 mg/kg [2, 6]: 74%

CCC(C(=O)Nc1cc(C(F)(F)F)cnc1NS(C)(=O)=O)c1ccccc1 (stereo not drawn) [compound 66]
inhibition at 1000 ppm [4]: 52%
Inhibition rate (%) (carrageenin edema): 31%
inhibition in vivo at 10 mg/kg [2, 5]: 53%
inhibition in vivo at 10 mg/kg [2, 6]: 63%

CC(C)S(=O)(=O)Nc1ncc(C(F)(F)F)cc1NC(=O)c1cccc(F)c1 [compound 104]
inhibition at 1000 ppm [4]: 61%
Inhibition rate (%) (carrageenin edema): 48%

CCCCCC(=O)Nc1cc(C(F)(F)F)cnc1NS(=O)(=O)N(C)C [compound 110]
inhibition at 1000 ppm [4]: 58%
Inhibition rate (%) (carrageenin edema): 25%

CCCOC(=O)Nc1cc(C(F)(F)F)cnc1NS(=O)(=O)N(C)C [compound 114]
inhibition at 1000 ppm [4]: 53%
Inhibition rate (%) (carrageenin edema): 28%
inhibition in vivo at 10 mg/kg [2, 5]: 32%
inhibition in vivo at 10 mg/kg [2, 6]: 27%

CS(=O)(=O)Nc1ncc(C(F)(F)F)cc1NC(=O)c1ccc2c(c1)CCCC2 [compound 123]
inhibition at 1000 ppm [4]: 86%
Inhibition rate (%) (carrageenin edema): 42%
inhibition in vivo at 10 mg/kg [2, 5]: 56%
inhibition in vivo at 10 mg/kg [2, 6]: 56%

CCCCCCCC(=O)Nc1cc(C(F)(F)F)cnc1NS(C)(=O)=O [compound 125]
inhibition at 1000 ppm [4]: 86%
Inhibition rate (%) (carrageenin edema): 22%

CS(=O)(=O)Nc1ncc(C(F)(F)F)cc1NC(=O)c1ccc(F)cc1 [compound 259]
% inhibition of PLA2 (1,000 ppm) [4]: 61%
Inhibition rate (%) (carrageenin edema): 17%
